Article PMC11945486, “TAS1R2/TAS1R3 Single-Nucleotide Polymorphisms Affect Sweet Taste Receptor Activation by Sweeteners: The SWEET Project” (Nutrients, 2025)
Where two headings read alike, the source gives them in different places. One block for each molecule: values may come before it. No end group written: not given here.

Target: T1, human TAS1R2-WT/TAS1R3-R247H (Homo sapiens, UniProt Q7RTX0+Q8TE23, R247H)
T1 construct: expressed in transfected cells; host or cells: HEK293T stably expressing Gα16gust44
T1 sequence (Q8TE23 20-839): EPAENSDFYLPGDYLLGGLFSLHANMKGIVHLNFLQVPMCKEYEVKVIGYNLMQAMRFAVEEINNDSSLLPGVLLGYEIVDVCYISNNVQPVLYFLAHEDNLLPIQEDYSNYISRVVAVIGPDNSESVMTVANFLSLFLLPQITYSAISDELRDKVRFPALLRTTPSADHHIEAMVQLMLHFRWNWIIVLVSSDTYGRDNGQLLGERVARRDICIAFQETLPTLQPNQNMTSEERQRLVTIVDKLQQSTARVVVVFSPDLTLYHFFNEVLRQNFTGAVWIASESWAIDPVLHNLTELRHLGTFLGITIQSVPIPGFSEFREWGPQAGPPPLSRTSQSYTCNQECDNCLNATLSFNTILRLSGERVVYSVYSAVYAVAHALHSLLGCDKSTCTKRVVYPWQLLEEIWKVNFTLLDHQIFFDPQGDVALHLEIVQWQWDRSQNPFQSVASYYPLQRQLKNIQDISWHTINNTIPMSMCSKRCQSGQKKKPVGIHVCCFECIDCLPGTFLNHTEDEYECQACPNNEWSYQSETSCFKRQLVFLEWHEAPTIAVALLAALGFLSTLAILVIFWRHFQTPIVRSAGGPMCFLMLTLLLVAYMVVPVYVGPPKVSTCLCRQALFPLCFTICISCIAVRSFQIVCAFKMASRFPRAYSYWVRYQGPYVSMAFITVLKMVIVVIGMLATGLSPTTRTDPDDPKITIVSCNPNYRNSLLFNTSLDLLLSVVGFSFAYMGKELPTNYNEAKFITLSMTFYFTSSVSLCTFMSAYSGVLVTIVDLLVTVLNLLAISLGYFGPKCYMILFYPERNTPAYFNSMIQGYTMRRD
T1 sequence (Q7RTX0 21-852 R247H): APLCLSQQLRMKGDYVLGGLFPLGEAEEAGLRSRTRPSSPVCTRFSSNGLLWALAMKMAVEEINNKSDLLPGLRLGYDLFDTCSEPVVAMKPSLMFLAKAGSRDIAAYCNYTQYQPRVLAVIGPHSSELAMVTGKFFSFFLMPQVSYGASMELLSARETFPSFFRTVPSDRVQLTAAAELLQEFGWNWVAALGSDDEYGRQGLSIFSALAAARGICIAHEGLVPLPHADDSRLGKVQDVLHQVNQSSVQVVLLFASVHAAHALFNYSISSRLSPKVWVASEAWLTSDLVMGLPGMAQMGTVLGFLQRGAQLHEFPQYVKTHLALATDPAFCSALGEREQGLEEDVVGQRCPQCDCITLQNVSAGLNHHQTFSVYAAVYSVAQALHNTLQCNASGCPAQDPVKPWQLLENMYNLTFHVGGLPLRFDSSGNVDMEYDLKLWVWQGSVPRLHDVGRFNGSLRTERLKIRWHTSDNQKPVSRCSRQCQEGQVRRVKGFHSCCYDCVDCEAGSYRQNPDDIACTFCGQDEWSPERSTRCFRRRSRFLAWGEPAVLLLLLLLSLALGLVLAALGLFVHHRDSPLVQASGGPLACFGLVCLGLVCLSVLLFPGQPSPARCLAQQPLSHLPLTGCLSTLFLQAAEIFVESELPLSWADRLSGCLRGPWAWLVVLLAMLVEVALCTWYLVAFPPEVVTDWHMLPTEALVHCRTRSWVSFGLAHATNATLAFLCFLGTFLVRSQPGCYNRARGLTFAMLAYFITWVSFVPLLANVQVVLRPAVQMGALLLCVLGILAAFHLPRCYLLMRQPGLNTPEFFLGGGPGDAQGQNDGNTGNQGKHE
Experiment: Calcium mobilisation assay, TAS1R2-WT with TAS1R3 variant R247H
Assay type: cell-based
Settings: for Max ΔF/F0: maximal signal amplitude
Description: The coding sequences for TAS1R2 and TAS1R3 were commercially synthesised, and the human codon was optimised for expression in human cells. The coding sequences of human TAS1R2 and TAS1R3 were subcloned and inserted into the mammalian expression vectors pcDNA6/myc-HisA and pcDNA4/myc-HisA (Invitrogen; Thermo Fisher Scientific; Illkirch, France) between the EcoRI and NotI restriction sites, generating the plasmids pcDNA6-TAS1R2 and pcDNA4-TAS1R3, respectively. To increase protein expression in mammalian cells, an upstream start codon was used, which was a sequence called MAX, corresponding to the QBI SP163 element also described in pcDNA4-HisMax (Invitrogen; Thermo Fisher Scientific; Illkirch, France). To measure the expression level of the receptor by immunohistochemistry, we used the FLAG sequence ([…]) in the C-terminal position, which encodes the FLAG tag epitope. SNP variants of TAS1R2 and TAS1R3 were constructed based on […], respectively, using site-directed mutagenesis (Genewiz; Leipzig, Germany).
The HEK293T cells were kindly provided by Jay P. Slack (Givaudan Flavors Corporation; Cincinnati, OH, USA). HEK293T cells stably transfected with Gα16gust44 [43, 67] were seeded in poly-D-lysine-coated clear-bottom black 96-well plates (0.35 × 10^5 cells/well) in high-glucose DMEM supplemented with 2 mM GlutaMAX, 10% dialysed foetal bovine serum with penicillin/streptomycin and G418 (400 μg/mL) at 37 °C and 6.3% CO2 in a humidified atmosphere as previously reported. […] As a negative control, HEK293T cells were mock-transfected with the empty expression vector. After a further 24 h of incubation, the HEK293T cells were washed with C1 buffer (130 mM NaCl, 5 mM KCl, 10 mM HEPES pH 7.4 and 2 mM CaCl2). The 96-well plates containing the cells were then stimulated with sweet-tasting compounds. […] Different concentration ranges were tested depending on the sweet compound injected. The Ca^2+ changes were expressed as fractional changes in fluorescent light intensity: ΔF/F = (F − F0)/F0, where F was the fluorescent light intensity at each point, and F0 was the value of emitted fluorescent light prior to stimulus application. To calculate dose–response relationships, the changes in fluorescence upon stimulus application were averaged, mock-subtracted and baseline-corrected. The dose–response data obtained were adjusted using a 4-parameter logistic equation. The half-maximal effective concentrations (EC50 values) and maximal signal amplitudes were calculated using SigmaPlot software (version 15.0) (Systat Software; San Jose, CA, USA).
For in vitro calcium mobilisation assay performed on hTAS1R2-SNPs, hTAS1R3-SNPs and mTAS1R3-I60T, 6 to 7 concentrations were tested for each sweet compound, plus buffer alone. All concentration–receptor combinations were measured in duplicate, and each experiment was repeated at least 4 times (8 wells/concentration). Results were expressed for each concentration as ΔF/F mean ± SEM and represented as dose–response curves.

R1 = Variant EC50/WT EC50: 1.0
Max ΔF/F0: 0.33 ± 0.01
EC50 (read-out: EC50): 639 ± 17 µM
Molecule: CC1=CC(=O)NS(=O)(=O)O1 [Acesulfame K, acesulfame K]

Molecule: O=S(=O)(O)NC1CCCCC1 [Cyclamate, cyclamate]
EC50 (read-out: EC50): 1520 ± 46 µM

Molecule: C[C@H](CC[C@@H](O[C@@H]1O[C@H](CO[C@@H]2O[C@H](CO)[C@@H](O)[C@H](O)[C@H]2O)[C@@H](O)[C@H](O)[C@H]1O[C@@H]1O[C@H](CO)[C@@H](O)[C@H](O)[C@H]1O)C(C)(C)O)[C@H]1CC[C@@]2(C)[C@@H]3CC=C4[C@@H](CC[C@H](O[C@@H]5O[C@H](CO[C@@H]6O[C@H](CO)[C@@H](O)[C@H](O)[C@H]6O)[C@@H](O)[C@H](O)[C@H]5O)C4(C)C)[C@]3(C)[C@H](O)C[C@]12C [Mogroside V, mogroside V]
R1 = Variant EC50/WT EC50: 0.9
Max ΔF/F0: 1.12 ± 0.02
EC50 (read-out: EC50): 28.7 ± 1.6 µM

R1 = Variant EC50/WT EC50: 1.3
Max ΔF/F0: 1.14 ± 0.05
EC50 (read-out: EC50): 65 ± 8.9 µM
Molecule: COc1ccc(CCC(=O)c2c(O)cc(O[C@@H]3O[C@H](CO)[C@@H](O)[C@H](O)[C@H]3O[C@@H]3O[C@@H](C)[C@H](O)[C@@H](O)[C@H]3O)cc2O)cc1O [NHDC, neohesperidin dihydrochalcone]

R1 = Variant EC50/WT EC50: 0.9
Max ΔF/F0: 0.71 ± 0.02
EC50 (read-out: EC50): 1.12 ± 0.07 µM
Molecule: COC(=O)[C@H](Cc1ccccc1)NC(=O)[C@H](CC(=O)O)NCCC(C)(C)C [Neotame]

R1 = Variant EC50/WT EC50: 0.6
Max ΔF/F0: 1.26 ± 0.15
EC50 (read-out: EC50): 8.5 ± 3.1 µM
Molecule: C=C(C)[C@@H]1CC=C(/C=N/O)CC1 [Perillartine, perillartine]

R1 = Variant EC50/WT EC50: 0.7
Max ΔF/F0: 1.15 ± 0.04
EC50 (read-out: EC50): 29.7 ± 2.6 µM
Molecule: C=C1C[C@@]23CC[C@H]4[C@@](C)(CCC[C@@]4(C)C(=O)O[C@@H]4O[C@H](CO)[C@@H](O)[C@H](O[C@@H]5O[C@H](CO)[C@@H](O)[C@H](O)[C@H]5O)[C@H]4O[C@@H]4O[C@H](CO)[C@@H](O)[C@H](O)[C@H]4O)[C@@H]2CC[C@]1(O[C@@H]1O[C@H](CO)[C@@H](O)[C@H](O[C@@H]2O[C@H](CO)[C@@H](O)[C@H](O)[C@H]2O)[C@H]1O[C@@H]1O[C@H](CO)[C@@H](O)[C@H](O)[C@H]1O)C3 [Rebaudioside M, rebaudioside M]

R1 = Variant EC50/WT EC50: 1.1
Max ΔF/F0: 0.69 ± 0.01
EC50 (read-out: EC50): 122 ± 2 µM
Molecule: OC[C@H]1O[C@H](O[C@]2(CCl)O[C@H](CCl)[C@@H](O)[C@@H]2O)[C@H](O)[C@@H](O)[C@H]1Cl [Sucralose]

R1 = Variant EC50/WT EC50: 0.6
EC50 (brazzein): 70.8 ± 8.1 mg/L
Max ΔF/F0: 0.95 ± 0.03
Molecule: brazzein (QDKCKKVYENYPVSKCQLANQCNYDCKLDKHARSGECFYDEKRNLQCICDYCEY; ends and bridges not checked; cysteine pairing not given here; UniProt P56552 1-54, looked up) [sweet-tasting protein obtained by recombinant production using the yeast Pichia pastoris]

R1 = Variant EC50/WT EC50: 0.8
Max ΔF/F0: 0.73 ± 0.08
Molecule: thaumatin

EC50 (read-out: EC50): 8.2 ± 2.3 µM
B1: thaumatin (protein)
chain: ATFEIVNRCSYTVWAAASKGDAALDAGGRQLNSGESWTINVEPGTKGGKIWARTDCYFDDSGSGICKTGDCGGLLRCKRFGRPPTTLAEFSLNQYGKDYIDISNIKGFNVPMDFSPTTRGCRGVRCAADIVGQCPAKLKAPGGGCNDACTVFQTSEYCCTTGKCGPTEYSRFFKRLCPDAFSYVLDKPTTVTCPGSSNYRVTFCPTA
modifications: Eight disulfides
notes: sweet-tasting plant protein, E957
